Results on two molecules are retold here after article PMC11358017, “Nucleotide metabolism in cancer cells fuels a UDP-driven macrophage cross-talk, promoting immunosuppression and immunotherapy resistance” (Nature Cancer, 2024).

The assay deals with T1, P2Y6 (P2ry6^WT BMDMs) (Mus musculus, UniProt Q9ERK9).
T1 construct: native full-length receptor, endogenous in mouse bone marrow-derived macrophages (BMDMs); no tag
The experiment in a line: Fura-2 intracellular calcium response, BMDMs, Hill fit. The format is cell-based. The conditions noted are these: agonist, native mouse BMDMs, peak F340/F380 normalized to ionomycin, pH 7.4, response absent in P2ry6^ΔMy BMDMs. Background: Calcium assays in cells follow changes in intracellular calcium, usually with a dye or a luminescent sensor.

T1 sequence (Q9ERK9 whole entry): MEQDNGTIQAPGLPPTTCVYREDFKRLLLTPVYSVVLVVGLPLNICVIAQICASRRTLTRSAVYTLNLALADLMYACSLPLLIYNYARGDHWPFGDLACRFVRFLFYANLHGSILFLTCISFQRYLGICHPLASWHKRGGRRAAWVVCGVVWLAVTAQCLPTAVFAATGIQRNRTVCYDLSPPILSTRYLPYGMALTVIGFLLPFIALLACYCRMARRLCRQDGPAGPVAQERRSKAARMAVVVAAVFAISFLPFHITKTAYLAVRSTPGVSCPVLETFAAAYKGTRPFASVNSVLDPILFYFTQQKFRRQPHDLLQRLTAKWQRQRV

For the molecule `O=c1ccn([C@@H]2O[C@H](COP(=O)(O)OP(=O)(O)O)[C@@H](O)[C@H]2O)c(=O)[nH]1` [UDP], the EC50 (n = 3) is 42 ± 5 nM.
On to `O=c1ccn([C@@H]2O[C@H](COP(=O)(O)OP(=O)(O)OP(=O)(O)O)[C@@H](O)[C@H]2O)c(=O)[nH]1` [UTP], for which the 50% effective concentration (EC50) (n = 6, possible conversion to UDP by ectonucleotidases) was 103 ± 12 nM.

Broadly, the EC50 is the concentration that produces a half-maximal response.
